The supplement of paper PMC10307832

How the values were obtained:
Test in all cases: relative viability (nuclei count vs DMSO), 5 days (fraction); higher = more cells survive
NCI-H838 = system: NCI-H838
Summary of the method: (§1)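 One day after seeding in 1536-well plates, lung cancer cell lines were dosed by pin tool. Dosing was either single-drug or a fixed anchor-drug dose plus five library-drug doses (not always all listed) in √10 steps. After 5 days, nuclei were stained in one fix-and-stain step and counted on 4× images, and relative viability is the nuclei count of treated wells over that of vehicle wells, given as the median of duplicate plates.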

PC-3 [JPC-3] = system: PC-3 [JPC-3]
Summary of the method: as §1

NCI-H650 = system: NCI-H650
Summary of the method: as §1

EBC-1 = system: EBC-1
Summary of the method: as §1

RERF-LC-KJ = system: RERF-LC-KJ
Summary of the method: as §1

A549 = system: A549
Summary of the method: as §1

NCI-H1651 = system: NCI-H1651
Summary of the method: as §1

NCI-H520 = system: NCI-H520
Summary of the method: as §1

Calu-6 = system: Calu-6
Summary of the method: as §1

IA-LM = system: IA-LM
Summary of the method: as §1

NCI-H1703 = system: NCI-H1703
Summary of the method: as §1

NCI-H1299 = system: NCI-H1299
Summary of the method: as §1

NCI-H1944 = system: NCI-H1944
Summary of the method: as §1

## CC(=O)O[C@@]12CO[C@@H]1C[C@H](O)[C@@]1(C)C(=O)[C@H](O)C3=C(C)[C@@H](OC(=O)[C@H](O)[C@@H](NC(=O)OC(C)(C)C)c4ccccc4)C[C@@](O)([C@@H](OC(=O)c4ccccc4)[C@H]21)C3(C)C [Docetaxel] + Cc1nc(NC(=O)N2CCC[C@H]2C(N)=O)sc1-c1ccnc(C(C)(C)C(F)(F)F)c1 [Alpelisib] (partner 2 µM)
NCI-H838; first compound 0.0002 µM
  relative viability: 0.978
NCI-H838; first compound 0.000632 µM
  relative viability: 0.974
NCI-H838; first compound 0.002 µM
  relative viability: 0.286
NCI-H838; first compound 0.006325 µM
  relative viability: 0.194
NCI-H838; first compound 0.02 µM
  relative viability: 0.157
PC-3 [JPC-3]; first compound 0.0002 µM
  relative viability: 1.02
PC-3 [JPC-3]; first compound 0.000632 µM
  relative viability: 1.07
PC-3 [JPC-3]; first compound 0.002 µM
  relative viability: 0.781
PC-3 [JPC-3]; first compound 0.006325 µM
  relative viability: 0.279
PC-3 [JPC-3]; first compound 0.02 µM
  relative viability: 0.167
NCI-H650; first compound 0.0002 µM
  relative viability: 1.02
NCI-H650; first compound 0.000632 µM
  relative viability: 0.518
NCI-H650; first compound 0.002 µM
  relative viability: 0.315
NCI-H650; first compound 0.006325 µM
  relative viability: 0.304
NCI-H650; first compound 0.02 µM
  relative viability: 0.212
EBC-1; first compound 0.0002 µM
  relative viability: 0.797
EBC-1; first compound 0.000632 µM
  relative viability: 0.576
EBC-1; first compound 0.002 µM
  relative viability: 0.275
EBC-1; first compound 0.006325 µM
  relative viability: 0.267
EBC-1; first compound 0.02 µM
  relative viability: 0.174
RERF-LC-KJ; first compound 0.0002 µM
  relative viability: 0.801
RERF-LC-KJ; first compound 0.000632 µM
  relative viability: 0.712
RERF-LC-KJ; first compound 0.002 µM
  relative viability: 0.38
RERF-LC-KJ; first compound 0.006325 µM
  relative viability: 0.235
RERF-LC-KJ; first compound 0.02 µM
  relative viability: 0.172
A549; first compound 0.0002 µM
  relative viability: 0.752
A549; first compound 0.000632 µM
  relative viability: 0.668
A549; first compound 0.002 µM
  relative viability: 0.0866
A549; first compound 0.006325 µM
  relative viability: 0.0749
A549; first compound 0.02 µM
  relative viability: 0.034
NCI-H1651; first compound 0.0002 µM
  relative viability: 0.811
NCI-H1651; first compound 0.000632 µM
  relative viability: 0.944
NCI-H1651; first compound 0.002 µM
  relative viability: 0.248
NCI-H1651; first compound 0.006325 µM
  relative viability: 0.108
NCI-H1651; first compound 0.02 µM
  relative viability: 0.111
NCI-H520; first compound 0.0002 µM
  relative viability: 0.786
NCI-H520; first compound 0.000632 µM
  relative viability: 0.95
NCI-H520; first compound 0.002 µM
  relative viability: 0.287
NCI-H520; first compound 0.006325 µM
  relative viability: 0.152
NCI-H520; first compound 0.02 µM
  relative viability: 0.13
Calu-6; first compound 0.0002 µM
  relative viability: 1.03
Calu-6; first compound 0.000632 µM
  relative viability: 0.99
Calu-6; first compound 0.002 µM
  relative viability: 0.432
Calu-6; first compound 0.006325 µM
  relative viability: 0.147
Calu-6; first compound 0.02 µM
  relative viability: 0.115
IA-LM; first compound 0.0002 µM
  relative viability: 0.595
IA-LM; first compound 0.000632 µM
  relative viability: 0.232
IA-LM; first compound 0.002 µM
  relative viability: 0.116
IA-LM; first compound 0.006325 µM
  relative viability: 0.0821
IA-LM; first compound 0.02 µM
  relative viability: 0.0716
NCI-H1703; first compound 0.0002 µM
  relative viability: 0.406
NCI-H1703; first compound 0.000632 µM
  relative viability: 0.442
NCI-H1703; first compound 0.006325 µM
  relative viability: 0.125
NCI-H1703; first compound 0.02 µM
  relative viability: 0.109
NCI-H1299; first compound 0.0002 µM
  relative viability: 1.05
NCI-H1299; first compound 0.000632 µM
  relative viability: 1.06
NCI-H1299; first compound 0.002 µM
  relative viability: 1.01
NCI-H1299; first compound 0.006325 µM
  relative viability: 0.605
NCI-H1299; first compound 0.02 µM
  relative viability: 0.431
NCI-H1944; first compound 0.0002 µM
  relative viability: 0.751
NCI-H1944; first compound 0.000632 µM
  relative viability: 0.761
NCI-H1944; first compound 0.002 µM
  relative viability: 0.728
NCI-H1944; first compound 0.006325 µM
  relative viability: 0.259
NCI-H1944; first compound 0.02 µM
  relative viability: 0.122
